In patent US12252524B2, “GIP/GLP1 co-agonist compounds” (Eli Lilly and Company, priority 2018, dated 2025):
Numbered stars: 1 amine (or outer) side, 2 acyl side, 3 side chain; on linkers, the order of the positions; unused ones are H or OH. Square brackets hold non-standard residues; d marks the D form. Side chains are listed from the residue outwards. Peptide text beside a SMILES is read from it. * marks the point of attachment. C20 diacid = O=C(O)CCCCCCCCCCCCCCCCCCC(=O)*; γGlu = O=C(O)[C@H](CCC(=O)[*:2])N[*:1]; αMeL = CC(C)C[C@](C)(N)C(=O)O; αMeK = C[C@](N)(CCCCN)C(=O)O; AEEA = NCCOCCOCC(=O)O; Aib = CC(C)(N)C(=O)O

Assays:
[1] = target: T1, human Gcg receptor (Homo sapiens, UniProt P47871); test: [125I]-Glucagon binding (SPA), human Gcg receptor; conditions: read-out: hGLcgR Ki, nM (SEM, n)
T1 construct: expressed in transfected cells; crude membranes
T1 sequence (P47871 26-477): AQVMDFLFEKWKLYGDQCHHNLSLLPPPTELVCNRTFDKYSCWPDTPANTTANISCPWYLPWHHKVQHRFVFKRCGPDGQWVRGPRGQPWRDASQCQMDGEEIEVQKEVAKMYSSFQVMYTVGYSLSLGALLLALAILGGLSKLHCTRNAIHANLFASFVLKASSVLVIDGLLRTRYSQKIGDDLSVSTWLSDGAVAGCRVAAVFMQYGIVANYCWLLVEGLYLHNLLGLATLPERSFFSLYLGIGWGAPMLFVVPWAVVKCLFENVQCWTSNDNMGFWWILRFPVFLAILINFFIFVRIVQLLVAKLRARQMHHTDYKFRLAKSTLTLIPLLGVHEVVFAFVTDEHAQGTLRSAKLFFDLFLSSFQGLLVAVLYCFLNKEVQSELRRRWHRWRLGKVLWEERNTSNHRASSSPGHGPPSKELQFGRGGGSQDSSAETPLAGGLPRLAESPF
Method in brief: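 Cell pellets were lysed in hypotonic Tris buffer, pH 7.5, homogenized, and spun at low then high speed to give crude membranes. Ki was derived from the fitted IC50.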

[2] = target: human GLP-1R (Homo sapiens, UniProt P43220); test: [125I]-GLP-1 binding (SPA), human GLP-1 receptor; design: expressed in transfected cells; crude membranes; conditions: read-out: hGLP1R Ki, (nM) (SEM, n)
Chain of human GLP-1R (P43220 24-463): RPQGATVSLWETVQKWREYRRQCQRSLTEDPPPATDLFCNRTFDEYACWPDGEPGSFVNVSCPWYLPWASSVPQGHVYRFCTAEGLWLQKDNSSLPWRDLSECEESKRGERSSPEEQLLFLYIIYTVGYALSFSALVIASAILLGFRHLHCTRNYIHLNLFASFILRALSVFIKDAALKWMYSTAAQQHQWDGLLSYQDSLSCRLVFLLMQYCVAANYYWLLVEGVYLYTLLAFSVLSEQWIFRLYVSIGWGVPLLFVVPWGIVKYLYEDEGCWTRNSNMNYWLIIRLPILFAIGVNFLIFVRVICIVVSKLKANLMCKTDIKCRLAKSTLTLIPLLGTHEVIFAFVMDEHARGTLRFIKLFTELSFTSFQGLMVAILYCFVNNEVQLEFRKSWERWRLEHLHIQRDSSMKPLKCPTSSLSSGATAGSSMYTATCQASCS
Method in brief: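 Assay buffer: HEPES 25 mM, pH 7.4, CaCl2 2.5 mM, MgCl2 1 mM, with EDTA-free protease inhibitors. Receptor came from crude cell membranes prepared by homogenization and centrifugation at 4° C. IC50s came from four-parameter fits (maximum, minimum, IC50, Hill slope) and were expressed as Ki geometric means with SEM.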

[3] = target: T2, human GIP receptor (Homo sapiens, UniProt P48546); test: [125I]-GIP binding (SPA), human GIP receptor; conditions: read-out: hGIPR Ki, nM (SEM, n)
T2 construct: expressed in transfected cells; crude membranes
T2 sequence (P48546 22-466): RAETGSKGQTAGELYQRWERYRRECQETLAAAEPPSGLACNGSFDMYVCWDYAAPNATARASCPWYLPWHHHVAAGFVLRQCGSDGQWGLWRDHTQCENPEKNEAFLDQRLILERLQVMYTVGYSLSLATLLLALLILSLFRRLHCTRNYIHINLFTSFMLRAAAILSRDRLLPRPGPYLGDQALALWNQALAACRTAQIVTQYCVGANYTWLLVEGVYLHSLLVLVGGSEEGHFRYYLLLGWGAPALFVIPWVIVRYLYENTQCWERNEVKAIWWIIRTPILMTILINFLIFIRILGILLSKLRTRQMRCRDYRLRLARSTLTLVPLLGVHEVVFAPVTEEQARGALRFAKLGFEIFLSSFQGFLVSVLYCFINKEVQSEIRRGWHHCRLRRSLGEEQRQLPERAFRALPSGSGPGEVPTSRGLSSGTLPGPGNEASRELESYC

[4] = target: human GLP-1 receptor (GLP-1R) (Homo sapiens, UniProt P43220); test: cAMP pharmacological functional assay in presence of casein, hGLP-1R; format: cell-based; conditions: HEK293 cells expressing hGLP-1R, 0.1% Casein, geometric mean; read-out: hGLP1R cAMP Rel EC50 nM (SEM, n)
Chain of human GLP-1 receptor (GLP-1R) (P43220 24-463): as the sequence (P43220 24-463) above

[5] = target: T3, gastric inhibitory peptide receptor (GIPR) (Homo sapiens, UniProt P48546); test: cAMP pharmacological functional assay in presence of casein, hGIPR; format: cell-based; conditions: HEK293 cells expressing hGIPR, 0.1% Casein, geometric mean; read-out: hGIPR cAMP Rel EC50 nM (SEM, n)
T3 sequence (P48546 22-466): T2 sequence (P48546 22-466)

SMILES | Ki [1] [nM] | Ki [2] [nM] | Ki [3] [nM] | EC50 [4] [nM] | EC50 [5] [nM]
CC[C@H](C)[C@H](NC(=O)[C@H](Cc1ccccc1)NC(=O)[C@H](C)NC(=O)C(C)(C)NC(=O)[C@H](CCC(N)=O)NC(=O)[C@H](C)NC(=O)[C@H](CCCCNC(=O)COCCOCCNC(=O)COCCOCCNC(=O)CC[C@H](NC(=O)CCCCCCCCCCCCCCCCCCC(=O)O)C(=O)O)NC(=O)[C@H](CCCCN)NC(=O)[C@H](CC(=O)O)NC(=O)[C@H](CC(C)C)NC(=O)[C@H](CC(C)C)NC(=O)[C@@H](NC(=O)[C@H](CO)NC(=O)[C@H](Cc1ccc(O)cc1)NC(=O)[C@H](CC(=O)O)NC(=O)[C@H](CO)NC(=O)[C@@H](NC(=O)[C@H](Cc1ccccc1)NC(=O)[C@@H](NC(=O)CNC(=O)[C@H](CCC(=O)O)NC(=O)C(C)(C)NC(=O)[C@@H](N)Cc1c[nH]cn1)[C@@H](C)O)[C@@H](C)O)[C@@H](C)CC)C(=O)N[C@@H](CCC(=O)O)C(=O)N[C@@H](Cc1ccc(O)cc1)C(=O)N[C@@H](CC(C)C)C(=O)N[C@@H](CC(C)C)C(=O)N[C@@H](CCC(=O)O)C(=O)NC(C)(C)C(=O)NCC(=O)N1CCC[C@H]1C(=O)N[C@@H](CO)C(=O)N[C@@H](CO)C(=O)NCC(=O)N[C@@H](C)C(=O)N1CCC[C@H]1C(=O)N1CCC[C@H]1C(=O)N1CCC[C@H]1C(=O)N[C@@H](CO)C(N)=O [Example 15] (H-H[Aib]EGTFTSDYSILLDKK([AEEA-AEEA-γGlu-C20 diacid])AQ[Aib]AFIEYLLE[Aib]GPSSGAPPPS-NH2) | 130 | 2.19 | 0.284 | 0.0336 | 0.613
CC[C@H](C)[C@H](NC(=O)[C@H](Cc1ccccc1)NC(=O)[C@H](C)NC(=O)C(C)(C)NC(=O)[C@H](CCC(N)=O)NC(=O)[C@H](C)NC(=O)[C@H](CCCCNC(=O)COCCOCCNC(=O)COCCOCCNC(=O)CC[C@H](NC(=O)CCCCCCCCCCCCCCCCCCC(=O)O)C(=O)O)NC(=O)[C@H](CCCCN)NC(=O)[C@H](CC(=O)O)NC(=O)[C@H](CC(C)C)NC(=O)[C@H](CC(C)C)NC(=O)[C@@H](NC(=O)[C@H](CO)NC(=O)[C@H](Cc1ccc(O)cc1)NC(=O)[C@H](CC(=O)O)NC(=O)[C@H](CO)NC(=O)[C@@H](NC(=O)[C@H](Cc1ccccc1)NC(=O)[C@@H](NC(=O)CNC(=O)[C@H](CCC(=O)O)NC(=O)C(C)(C)NC(=O)[C@@H](N)Cc1c[nH]cn1)[C@@H](C)O)[C@@H](C)O)[C@@H](C)CC)C(=O)N[C@@H](CCC(=O)O)C(=O)N[C@@H](Cc1ccc(O)cc1)C(=O)N[C@@H](CC(C)C)C(=O)N[C@H](C(=O)N[C@@H](CCC(=O)O)C(=O)NC(C)(C)C(=O)NCC(=O)N1CCC[C@H]1C(=O)N[C@@H](CO)C(=O)N[C@@H](CO)C(=O)NCC(=O)N[C@@H](C)C(=O)N1CCC[C@H]1C(=O)N1CCC[C@H]1C(=O)N1CCC[C@H]1C(=O)N[C@@H](CO)C(N)=O)[C@@H](C)CC [Example 16] (H-H[Aib]EGTFTSDYSILLDKK([AEEA-AEEA-γGlu-C20 diacid])AQ[Aib]AFIEYLIE[Aib]GPSSGAPPPS-NH2) | 371 | 2.78 | 0.0841 | 0.0437 | 0.975
CC[C@H](C)[C@H](NC(=O)[C@H](CCCCN)NC(=O)[C@H](CC(=O)O)NC(=O)[C@H](CC(C)C)NC(=O)[C@H](CC(C)C)NC(=O)[C@@H](NC(=O)[C@H](CO)NC(=O)[C@H](Cc1ccc(O)cc1)NC(=O)[C@H](CC(=O)O)NC(=O)[C@H](CO)NC(=O)[C@@H](NC(=O)[C@H](Cc1ccccc1)NC(=O)[C@@H](NC(=O)CNC(=O)[C@H](CCC(=O)O)NC(=O)C(C)(C)NC(=O)[C@@H](N)Cc1c[nH]cn1)[C@@H](C)O)[C@@H](C)O)[C@@H](C)CC)C(=O)N[C@@H](C)C(=O)N[C@@H](CCC(N)=O)C(=O)N[C@@H](CCCCNC(=O)COCCOCCNC(=O)COCCOCCNC(=O)CC[C@H](NC(=O)CCCCCCCCCCCCCCCCCCC(=O)O)C(=O)O)C(=O)N[C@@H](C)C(=O)N[C@@H](Cc1ccccc1)C(=O)N[C@H](C(=O)N[C@@H](CCC(=O)O)C(=O)N[C@@H](Cc1ccc(O)cc1)C(=O)N[C@@H](CC(C)C)C(=O)N[C@@H](CC(C)C)C(=O)N[C@@H](CCC(=O)O)C(=O)NC(C)(C)C(=O)NCC(=O)N1CCC[C@H]1C(=O)N[C@@H](CO)C(=O)N[C@@H](CO)C(=O)NCC(N)=O)[C@@H](C)CC [Example 17] (H-H[Aib]EGTFTSDYSILLDKIAQK([AEEA-AEEA-γGlu-C20 diacid])AFIEYLLE[Aib]GPSSG-NH2; N-terminus assumed) | 261 | 7.63 | 0.606 | 0.152 | 5.81
CC[C@H](C)[C@H](NC(=O)[C@H](CC(C)C)NC(=O)[C@H](Cc1ccc(O)cc1)NC(=O)[C@H](CCC(=O)O)NC(=O)[C@@H](NC(=O)[C@H](Cc1ccccc1)NC(=O)[C@H](C)NC(=O)C(C)(C)NC(=O)[C@H](CCC(N)=O)NC(=O)[C@H](C)NC(=O)[C@H](CCCCNC(=O)COCCOCCNC(=O)COCCOCCNC(=O)CC[C@H](NC(=O)CCCCCCCCCCCCCCCCCCC(=O)O)C(=O)O)NC(=O)[C@H](CCCCN)NC(=O)[C@H](CC(=O)O)NC(=O)[C@H](CC(C)C)NC(=O)[C@](C)(CC(C)C)NC(=O)[C@@H](NC(=O)[C@H](CO)NC(=O)[C@H](Cc1ccc(O)cc1)NC(=O)[C@H](CC(=O)O)NC(=O)[C@H](CO)NC(=O)[C@@H](NC(=O)[C@H](Cc1ccccc1)NC(=O)[C@@H](NC(=O)CNC(=O)[C@H](CCC(=O)O)NC(=O)C(C)(C)NC(=O)[C@@H](N)Cc1ccc(O)cc1)[C@@H](C)O)[C@@H](C)O)[C@@H](C)CC)[C@@H](C)CC)C(=O)N[C@@H](CCC(=O)O)C(=O)NCC(=O)NCC(=O)N1CCC[C@H]1C(=O)N[C@@H](CO)C(=O)N[C@@H](CO)C(=O)NCC(=O)N[C@@H](C)C(=O)N1CCC[C@H]1C(=O)N1CCC[C@H]1C(=O)N1CCC[C@H]1C(=O)N[C@@H](CO)C(N)=O [Example 20] | 228 | 3.3 | 0.0849 | 0.117 | 0.0556
CC[C@H](C)[C@H](NC(=O)[C@H](Cc1ccccc1)NC(=O)[C@H](C)NC(=O)[C@](C)(CCCCN)NC(=O)[C@H](CCC(N)=O)NC(=O)[C@H](C)NC(=O)[C@H](CCCCNC(=O)COCCOCCNC(=O)COCCOCCNC(=O)CC[C@H](NC(=O)CCCCCCCCCCCCCCCCCCC(=O)O)C(=O)O)NC(=O)[C@H](CCC(=O)O)NC(=O)[C@H](CC(=O)O)NC(=O)[C@H](CC(C)C)NC(=O)[C@](C)(CC(C)C)NC(=O)[C@@H](NC(=O)[C@H](CO)NC(=O)[C@H](Cc1ccc(O)cc1)NC(=O)[C@H](CC(=O)O)NC(=O)[C@H](CO)NC(=O)[C@@H](NC(=O)[C@H](Cc1ccccc1)NC(=O)[C@@H](NC(=O)CNC(=O)[C@H](CCC(=O)O)NC(=O)C(C)(C)NC(=O)[C@@H](N)Cc1ccc(O)cc1)[C@@H](C)O)[C@@H](C)O)[C@@H](C)CC)C(=O)N[C@@H](CCC(=O)O)C(=O)N[C@@H](Cc1ccc(O)cc1)C(=O)N[C@@H](CC(C)C)C(=O)N[C@@H](CC(C)C)C(=O)N[C@@H](CCC(=O)O)C(=O)NCC(=O)NCC(=O)N1CCC[C@H]1C(=O)N[C@@H](CO)C(=O)N[C@@H](CO)C(=O)NCC(=O)N[C@@H](C)C(=O)N1CCC[C@H]1C(=O)N1CCC[C@H]1C(=O)N1CCC[C@H]1C(=O)N[C@@H](CO)C(N)=O [Example 21] (H-Y[Aib]EGTFTSDYSI[αMeL]LDEK([AEEA-AEEA-γGlu-C20 diacid])AQ[αMeK]AFIEYLLEGGPSSGAPPPS-NH2) | 149 | 14.5 | 0.529 | 0.16 | 0.0748
